Reference: paper PMC6149664, “Synthesis and In Vitro Antimycobacterial Activity of Novel N-Arylpiperazines Containing an Ethane-1,2-diyl Connecting Chain” (Molecules : A Journal of Synthetic Chemistry and Natural …, 2017)
Where two headings read alike, the source gives them in different places.

Experiments:
[1] = type: physicochemical; parameters: key to RM (RP-TLC): RM = log(1/Rf - 1), from Rf in HCl/acetone mobile phase
Description: In the RP-TLC, silica gel plates impregnated by a hand with a variously concentrated silicone oil in heptane (a strong hydrophobic agent) were used as a non-polar stationary phase. Optimal differences in RM values within both homological groups 8a–d and 8e–h were observed if 1% silicone oil in heptane was chosen (Tables 1 and S1 in Supplementary Materials).
The RM values were calculated according to Equation (5) from the Rf parameters observed in a SM mobile phase: hydrochloric acid (c = 1.0 M)/acetone (4:1, v/v):RM = log (1/Rf – 1)(5)
For the experiments, aluminium sheets pre-coated with silica gel 60 F254 (0.25 mm thickness; Merck) were impregnated by a variously concentrated silicone oil in heptane, which ranged from 1% to 5%. The plates were separately spotted with 2 µL of methanolic solutions of each compound (c = 1 mg/mL), starting points were 1 cm from a bottom edge of these plates. The chromatographic plates were developed in glass developing chambers saturated for 30 min by the SM mobile phase. Development was carried out upon 15 cm from a starting line by an ascending technique. After being developed, the plates were dried at room temperature. Detection of zones was performed under iodine vapours/UV light at λ = 254 nm. Each experiment was run in triplicate at 21 °C, the RM values of analytes were calculated separately for each run.
Optimal differences in RM values within both homological groups 8a–d and 8e–h were observed if 1% silicone oil in heptane was chosen. The Rfs were found in a range from 0.19 (8h) to 0.78 (8a; Table 1). All the calculated average RM values were summarized in Table S1 (Supplementary Materials).

[2] = test system: M. kansasii CNCTC My 235/80 (identical with ATCC 12478); test: In vitro antimycobacterial MIC, dilution-micromethod in Šula semisynthetic medium; type: cell-based, Mycobacterium kansasii; conditions: Mycobacterium kansasii, read-out: MIC, MK My 235/80
[3] = test system: M. avium CNCTC My 330/80 (identical with ATCC 25291); test: as above; type: cell-based; conditions: Mycobacterium avium
[4] = test system: human monocytic leukemia THP-1 cell line; test: In vitro cytotoxicity screening, LDH assay; conditions: 24 h
[5] = silica gel plates impregnated with 3% silicone oil in heptane
[6] = silica gel plates impregnated with 5% silicone oil in heptane
[7] = ATCC12478, 168 h, 7 d cultivation
[8] = ATCC12478, 336 h, 14 d cultivation
[9] = ATCC12478, 504 h, 21 d cultivation
[10] = ATCC25291, 336 h, 14 d cultivation, read-out: MIC, MA My 330/88
[11] = ATCC25291, 504 h, 21 d cultivation, read-out: MIC, MA My 330/88
[12] = ATCC25291, 336 h, 14-d/21-d, read-out: MIC against M. avium CNCTC My 330/80

With `CCOC(=O)Nc1cccc(C(O)CN2CCN(c3ccccc3F)CC2)c1.Cl` (stereo not shown) [8b, 1-(2-{3-[(Ethoxycarbonyl)amino]phenyl}-2-hydroxyethyl)-4-(2-fluorophenyl)piperazin-1-ium chloride] the “RM (RP-TLC)” value [1, 5] was -0.03, the “RM (RP-TLC)” value [1, 6] was 0.11 and the MIC [2, 7] was 62.5 µM. The MIC [2, 8] was 250 µM, the MIC [2, 9] was 250 µM and the MIC [3, 10] was 250 µM. The MIC [3, 11] was 250 µM.

For `COC(=O)Nc1ccc(C(O)CN2CCN(c3ccccc3F)CC2)cc1.Cl` (stereo not shown) [8e, 1-(2-Hydroxy-2-{4-[(methoxycarbonyl)amino]phenyl}ethyl)-4-(2-fluorophenyl)piperazin-1-ium chloride], the “RM (RP-TLC)” value [1, 5] was 0.19, the “RM (RP-TLC)” value [1, 6] was 0.25 and the MIC [2, 7] was 125 µM. For the same compound, the MIC [2, 8] was 500 µM, the MIC [2, 9] was 500 µM and the MIC [3, 10] was 250 µM. The MIC [3, 11] was 500 µM and the “Effect on proliferation of the THP-1 cells compared to a control” value [4] was “increased proliferation”.

In the case of `CCCCOC(=O)Nc1cccc(C(O)CN2CCN(c3ccccc3F)CC2)c1.Cl` (stereo not shown) [8d, 1-(2-{3-[(Butoxycarbonyl)amino]phenyl}-2-hydroxyethyl)-4-(2-fluorophenyl)piperazin-1-ium chloride], the “RM, lipophilicity index (RP-TLC)” value [1] is reported as 0.01, the “RM (RP-TLC)” value [1, 6] is reported as 0.64 and the MIC [2, 7] is reported as 32 µM. The MIC [2, 8] was 62.5 µM, the MIC [2, 9] was 62.5 µM and the MIC [3, 12] was 62.5 µM. The MIC [3, 10] was 62.5 µM, the MIC [3, 11] was 62.5 µM and the “Relative survival rate of the THP-1 cells” value ([4]; highest tested concentration of 30 μM) was 79%.

For `CCCCOC(=O)Nc1ccc(C(O)CN2CCN(c3ccccc3F)CC2)cc1.Cl` (stereo not shown) [8h, 1-(2-{4-[(Butoxycarbonyl)amino]phenyl}-2-hydroxyethyl)-4-(2-fluorophenyl)piperazin-1-ium chloride], the “RM, lipophilicity index (RP-TLC)” value [1] was 0.63, the “RM (RP-TLC)” value [1, 5] was 0.83 and the “RM (RP-TLC)” value [1, 6] was 0.83. For the same compound, the MIC [2, 7] was 62.5 µM, the MIC [2, 8] was over 125 µM and the MIC [2, 9] was over 125 µM. The MIC [3, 10] was over 250 µM and the MIC [3, 11] was 250 µM.

In the case of `CCCOC(=O)Nc1cccc(C(O)CN2CCN(c3ccccc3F)CC2)c1.Cl` (stereo not shown) [8c, 1-(2-Hydroxy-2-{3-[(propoxycarbonyl)amino]phenyl}ethyl)-4-(2-fluorophenyl)piperazin-1-ium chloride], the “RM (RP-TLC)” value [1, 5] is reported as 0.42, the “RM (RP-TLC)” value [1, 6] is reported as 0.44 and the MIC ([2]; ATCC12478, 168 h) is reported as 62.5 µM. It also gave an MIC [2, 8] of 125 µM, an MIC [2, 9] of 125 µM and an MIC [3, 10] of 125 µM. For the same compound, the MIC [3, 11] was 250 µM.

In the case of `COC(=O)Nc1cccc(C(O)CN2CCN(c3ccccc3F)CC2)c1.Cl` (stereo not shown) [8a, 1-(2-Hydroxy-2-{3-[(methoxycarbonyl)amino]phenyl}ethyl)-4-(2-fluorophenyl)piperazin-1-ium chloride], the “RM (RP-TLC)” value [1, 5] is reported as -0.16, the “RM (RP-TLC)” value [1, 6] is reported as -0.05 and the MIC [2, 7] is reported as 125 µM. It also gave an MIC [2, 8] of 500 µM, an MIC [2, 9] of 1000 µM and an MIC [3, 12] of 500 µM. For the same compound, the MIC [3, 10] was 500 µM, the MIC [3, 11] was 500 µM and the “Effect on proliferation of the THP-1 cells compared to a control” value [4] was “increased proliferation”.

For `CCCOC(=O)Nc1ccc(C(O)CN2CCN(c3ccccc3F)CC2)cc1.Cl` (stereo not shown) [8g, 1-(2-Hydroxy-2-{4-[(propoxycarbonyl)amino]phenyl}ethyl)-4-(2-fluorophenyl)piperazin-1-ium chloride], the “RM, lipophilicity index (RP-TLC)” value [1] was 0.39, the “RM (RP-TLC)” value [1, 5] was 0.58 and the “RM (RP-TLC)” value [1, 6] was 0.55. For the same compound, the MIC [2, 7] was 125 µM, the MIC [2, 8] was over 250 µM and the MIC [2, 9] was over 250 µM. For the same compound, the MIC [3, 10] was over 250 µM and the MIC [3, 11] was over 250 µM.

With `CCOC(=O)Nc1ccc(C(O)CN2CCN(c3ccccc3F)CC2)cc1.Cl` (stereo not shown) [8f, 1-(2-{4-[(Ethoxycarbonyl)amino]phenyl}-2-hydroxyethyl)-4-(2-fluorophenyl)piperazin-1-ium chloride] the “RM, lipophilicity index (RP-TLC)” value [1] was 0.19, the “RM (RP-TLC)” value [1, 5] was 0.31 and the “RM (RP-TLC)” value [1, 6] was 0.41. It also gave an MIC [2, 7] of 125 µM, an MIC [2, 8] of over 250 µM and an MIC [2, 9] of over 250 µM. The MIC [3, 10] was over 250 µM and the MIC [3, 11] was over 250 µM.
